The nature of series [1]: Oral Bioavailability in rat. Type of series: ADME, organism-based. The conditions noted are these: in vivo.
Series [2] can be described thus: Half life in rat. In kind it is ADME. The conditions noted are these: in vivo.
A short description of series [3]: Oral bioavailability in rat at 2 mg/kg measured at 0.25 to 168 hrs by liquid chromatography tandem mass spectrometry analysis. In kind it is ADME, organism-based. To be noted: in vivo, time 0.25-168 hrs.
A short description of series [4]: Clearance in rat at 1 mg/kg, iv measured after 0.083 hrs by liquid chromatography tandem mass spectrometry analysis. In kind it is ADME, organism-based. The conditions noted are these: in vivo.
Series [5] in a line: Half life in rat at 1 mg/kg, iv measured after 0.083 hrs by liquid chromatography tandem mass spectrometry analysis. Type of series: ADME, organism-based. The conditions noted are these: in vivo.
Series [6] in a line: Half life in mouse at 1 mg/kg, iv measured after 0.083 hrs by liquid chromatography tandem mass spectrometry analysis. To be noted: in vivo. Type of series: ADME, organism-based.
A short description of series [7]: Half life in monkey at 0.5 mg/kg, iv measured after 0.083 hrs by liquid chromatography tandem mass spectrometry analysis. Type of series: ADME, organism-based, Macaca mulatta. To be noted: rhesus monkey, in vivo.
A short description of series [8]: Half life in dog at 0.5 mg/kg, iv measured after 0.083 hrs by liquid chromatography tandem mass spectrometry analysis. Type of series: ADME, organism-based, Canis lupus familiaris. The conditions noted are these: in vivo.
The nature of series [9]: Cmax in iv dosed rat. Type of series: ADME, organism-based. The arrangement: route iv. The conditions noted are these: in vivo.
Series [10] can be described thus: Half life in iv dosed rat. In kind it is ADME, organism-based. To be noted: in vivo.
A short description of series [11]: Bioavilability in iv dosed rat. Type of series: ADME, organism-based. The conditions noted are these: in vivo.
Series [12] is described as follows: AUC in iv dosed rat. In kind it is ADME, organism-based. Details: route iv. The conditions noted are these: in vivo.
Series [13] is described as follows: Tmax in iv dosed rat. Type of series: ADME, organism-based. The conditions noted are these: in vivo.
Series [14] is described as follows: Oral bioavailability in Sprague-Dawley rat at 5 mg/kg measured at 0.083 to […] by Liquid chromatography coupled with tandem mass spectrometry analysis. Type of series: ADME, organism-based. The conditions noted are these: in vivo, time 0.083-0.25 hrs.
The nature of series [15]: Half life in Sprague-Dawley rat at 5 mg/kg, po measured at 0.083 to […] by Liquid chromatography coupled with tandem mass spectrometry analysis. The conditions noted are these: in vivo, time 0.083-0.25 hrs. Type of series: ADME, organism-based.
Series [16] is described as follows: Volume of distribution in Cynomolgus monkey at 10 mg/kg, po measured after 24 hrs by LC/MS/MS analysis. In kind it is ADME, organism-based, Macaca fascicularis. To be noted: in vivo.
The nature of series [17]: Clearance in dog at 3 mg/kg, po measured after 24 hrs by LC/MS/MS analysis. In kind it is ADME, organism-based, Canis lupus familiaris. The conditions noted are these: in vivo.
The nature of series [18]: Volume of distribution in rat at 1 mg/kg, iv measured after 24 hrs by LC/MS/MS analysis. Type of series: ADME, organism-based. To be noted: in vivo.
A short description of series [19]: Oral bioavailability in Cynomolgus monkey at 10 mg/kg measured after 24 hrs by LC/MS/MS analysis. The conditions noted are these: in vivo. Type of series: ADME, organism-based, Macaca fascicularis.
Series [20] is described as follows: Oral bioavailability in rat at 10 mg/kg measured after 24 hrs by LC/MS/MS analysis. Type of series: ADME, organism-based. To be noted: in vivo.
Series [21] is described as follows: Cmax in dog at 3 mg/kg, po measured after 24 hrs by LC/MS/MS analysis. The conditions noted are these: in vivo. In kind it is ADME, organism-based, Canis lupus familiaris. The arrangement: time 24 hrs, dose 3 mg/kg, route po.
Series [22] in a line: Volume of distribution in dog at 3 mg/kg, po measured after 24 hrs by LC/MS/MS analysis. Type of series: ADME, organism-based, Canis lupus familiaris. To be noted: in vivo.
Series [23] is described as follows: Half life in dog at 3 mg/kg, po measured after 24 hrs by LC/MS/MS analysis. To be noted: in vivo. In kind it is ADME, organism-based, Canis lupus familiaris.
Series [24] in a line: AUC in dog at 3 mg/kg, po measured after 24 hrs by LC/MS/MS analysis. Type of series: ADME, organism-based, Canis lupus familiaris. Details: dose 3 mg/kg, time 24 hrs, route po. The conditions noted are these: in vivo.
The nature of series [25]: Clearance in Cynomolgus monkey at 10 mg/kg, po measured after 24 hrs by LC/MS/MS analysis. Type of series: ADME, organism-based, Macaca fascicularis. The conditions noted are these: in vivo.
Series [26] is described as follows: Oral bioavailability in rat at 1 mg/kg measured after 24 hrs by LC/MS/MS analysis. In kind it is ADME, organism-based. The conditions noted are these: in vivo.
A short description of series [27]: AUC in Cynomolgus monkey at 10 mg/kg, po measured after 24 hrs by LC/MS/MS analysis. Type of series: ADME, organism-based, Macaca fascicularis. Details: dose 10 mg/kg, time 24 hrs, route po. The conditions noted are these: in vivo.
Series [28] can be described thus: Cmax in rat at 10 mg/kg, po measured after 24 hrs by LC/MS/MS analysis. In kind it is ADME, organism-based. The arrangement: dose 10 mg/kg, time 24 hrs, route po. To be noted: in vivo.
Series [29] can be described thus: Clearance in rat at 1 mg/kg, iv measured after 24 hrs by LC/MS/MS analysis. In kind it is ADME, organism-based. To be noted: in vivo.
The nature of series [30]: Half life in rat at 1 mg/kg, iv measured after 24 hrs by LC/MS/MS analysis. In kind it is ADME, organism-based. To be noted: in vivo.
Series [31] can be described thus: Half life in rat at 10 mg/kg, po measured after 24 hrs by LC/MS/MS analysis. To be noted: in vivo. In kind it is ADME, organism-based.
Series [32] is described as follows: Oral bioavailability in dog at 3 mg/kg measured after 24 hrs by LC/MS/MS analysis. To be noted: in vivo. In kind it is ADME, organism-based, Canis lupus familiaris.
A short description of series [33]: Tmax in dog at 3 mg/kg, po measured after 24 hrs by LC/MS/MS analysis. Type of series: ADME, organism-based, Canis lupus familiaris. The conditions noted are these: in vivo.
Series [34] can be described thus: Tmax in rat at 10 mg/kg, po measured after 24 hrs by LC/MS/MS analysis. Type of series: ADME, organism-based. To be noted: in vivo.
Series [35] can be described thus: AUC in rat at 10 mg/kg, po measured after 24 hrs by LC/MS/MS analysis. In kind it is ADME, organism-based. The arrangement: dose 10 mg/kg, time 24 hrs, route po. The conditions noted are these: in vivo.
A short description of series [36]: Half life in Cynomolgus monkey at 10 mg/kg, po measured after 24 hrs by LC/MS/MS analysis. To be noted: in vivo. Type of series: ADME, organism-based, Macaca fascicularis.
A short description of series [37]: Tmax in Cynomolgus monkey at 10 mg/kg, po measured after 24 hrs by LC/MS/MS analysis. In kind it is ADME, organism-based, Macaca fascicularis. To be noted: in vivo.
Series [38] in a line: Cmax in Cynomolgus monkey at 10 mg/kg, po measured after 24 hrs by LC/MS/MS analysis. The conditions noted are these: in vivo. Details: dose 10 mg/kg, time 24 hrs, route po. In kind it is ADME, organism-based, Macaca fascicularis.
Series [39] in a line: AUC in rat at 1 mg/kg, iv measured after 24 hrs by LC/MS/MS analysis. To be noted: in vivo. Details: dose 1 mg/kg, time 24 hrs, route iv. In kind it is ADME, organism-based.

Molecules are shown by their SMILES.

In turn, `CS(=O)(=O)Nc1cccc(NC(=O)CN2CCN(C(=O)C[C@H](N)Cc3ccccc3F)[C@H](Cc3ccccc3)C2)c1` showed a bioavailability in series [1] of less than 1%.
As for `N[C@@H](CC(=O)N1CCSC1)Cc1cc(F)c(F)cc1F`, in [1], the bioavailability is 3%. The compound further had a half-life in series [2] of 1.1 h.
In series [2], `CC#CCn1c(N2CCC[C@@H](N)C2)nc2c1c(=O)n(Cc1nc3cc(F)ccc3s1)c(=O)n2C` showed a half-life of 7.3 h.
For the compound `N[C@H]1C[C@@H](N2CC3=C(C2)CS(=O)(=O)C3)CO[C@@H]1c1cc(F)ccc1F`, the bioavailability in [3] came out at 91%. Besides, the clearance in series [4] worked out at 19 mL/min/kg. The half-life was 28 h in series [5], 44.4 h in [6], 61.1 h in series [7] and 52.8 h in [8].
In the case of `N[C@H]1C[C@@H](N2Cc3nn4c(C(F)(F)F)cc(C(F)(F)F)nc4c3C2)CO[C@@H]1c1cc(F)ccc1F`, the bioavailability in [1] and in series [11] was 71% throughout. This compound also displayed a Cmax in [9] of 119 ng/mL. For the same compound, the half-life in series [10] and in [2] was 25.4 h throughout. In series [12], this compound came in with an AUC of 3700 ng·h/mL. Also, in series [13], the Tmax was 5.3 h.
Take `N#Cc1ccc(F)cc1Cn1c(N2CCC[C@@H](N)C2)nc2cc(-c3cccnc3)sc2c1=O`: the bioavailability in series [14] was found to be 94%. For the same compound, the half-life in [15] is 16.4 h.
For `Cn1c(=O)cc(N2CCC[C@@H](N)C2)n(Cc2ccccc2C#N)c1=O` [ALOGLIPTIN], the Vd came out at 2.6 L/kg in series [16], 3.5 L/kg in series [18] and 3.5 L/kg in [22]. In addition, the CL/F in [17] worked out at 23 mL/min/kg; in series [25], 8.8 mL/min/kg. In addition, the bioavailability was 87% in series [19], 45% in series [20], 86% in series [26] and 68% in series [32]. In addition, the results for the maximum concentration (Cmax) in series [21], in series [28] and in [38] were 447 ng/mL, 393 ng/mL and 3210 ng/mL, respectively. Besides, the half-life is 3 h in series [23], 1.4 h in [30], 2.8 h in series [31] and 5.6 h in series [36]. Also, the AUC at 24 h is 1600 ng·h/mL in series [24], 16600 ng·h/mL in [27], 1200 ng·h/mL in series [35] and 260 ng·h/mL in [39]. In addition, the clearance in series [29] was determined as 49 mL/min/kg. The Tmax in [33] worked out at 0.4 h; in series [34], 2.3 h; in series [37], 1 h.

The values above are taken from ChEMBL document CHEMBL5365448, “Development of Long-Acting Dipeptidyl Peptidase-4 Inhibitors: Structural Evolution and Long-Acting Determinants” (J Med Chem, 2023).
